From patent publication US7799809B2, “Carboxamide compounds and their use as calpain inhibitors” (Abbott GmbH & Co. KG, priority 2006, dated 2010)

How the values were obtained:
Format in all cases: biochemical
cathepsin K = target: T1, cathepsin K (Homo sapiens, UniProt P43235); assay: Cathepsin K enzyme inhibition in vitro (kinetic fluorescence assay); details: cathepsin K activated from recombinant human procathepsin K vs calpain I
T1 construct: purchased Calbiochem 342001; host or cells: E. coli
T1 sequence (P43235 115-329): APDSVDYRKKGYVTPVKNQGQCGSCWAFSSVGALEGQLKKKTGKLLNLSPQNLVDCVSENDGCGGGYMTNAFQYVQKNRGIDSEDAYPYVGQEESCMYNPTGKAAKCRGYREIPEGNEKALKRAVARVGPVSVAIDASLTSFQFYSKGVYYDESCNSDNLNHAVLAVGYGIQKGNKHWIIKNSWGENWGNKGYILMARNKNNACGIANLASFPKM

cathepsin L = target: T2, cathepsin L (Homo sapiens, UniProt P07711); assay: Cathepsin L enzyme inhibition in vitro (kinetic fluorescence assay); details: cathepsin L isolated from human liver vs calpain I
T2 construct: cathepsin L—isolated from human liver (Calbiochem #219402); purchased Calbiochem 219402; host or cells: human liver (tissue-derived)
T2 sequence (P07711 114-333): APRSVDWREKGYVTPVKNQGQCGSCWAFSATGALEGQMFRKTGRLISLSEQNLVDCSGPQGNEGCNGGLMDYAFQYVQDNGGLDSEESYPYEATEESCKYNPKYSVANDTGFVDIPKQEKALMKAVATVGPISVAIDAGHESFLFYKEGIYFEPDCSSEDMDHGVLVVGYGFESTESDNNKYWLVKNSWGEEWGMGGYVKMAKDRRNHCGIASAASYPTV
Method in brief: (§1)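 cat B 0.25 nM + Z-Phe-Arg-AMC 100 μM; cat L 1 nM + Z-Phe-Arg-AMC 2 μM; cat S 0.5 nM (E. coli-expressed) + Z-Val-Val-Arg-AMC 20 μM. 50 mM MES pH 6.0, 2.5 mM L-Cys, RT. Ex 390/em 460, kinetic; Ki app = Cheng-Prusoff from IC50, mean of 2–4 curves.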

cathepsin B = target: T3, cathepsin B (Homo sapiens, UniProt P07858); assay: Cathepsin B enzyme inhibition in vitro (kinetic fluorescence assay); details: cathepsin B isolated from human liver vs calpain I
T3 construct: cathepsin B—isolated from human liver (Calbiochem #219362); purchased Calbiochem 219362; host or cells: human liver (tissue-derived)
Method in brief: as §1

cathepsin S = target: T4, cathepsin S (Homo sapiens, UniProt P25774); assay: Cathepsin S enzyme inhibition in vitro (kinetic fluorescence assay); details: recombinant human cathepsin S vs calpain I
T4 construct: purchased Calbiochem 219343; host or cells: E. coli
T4 sequence (P25774 115-331): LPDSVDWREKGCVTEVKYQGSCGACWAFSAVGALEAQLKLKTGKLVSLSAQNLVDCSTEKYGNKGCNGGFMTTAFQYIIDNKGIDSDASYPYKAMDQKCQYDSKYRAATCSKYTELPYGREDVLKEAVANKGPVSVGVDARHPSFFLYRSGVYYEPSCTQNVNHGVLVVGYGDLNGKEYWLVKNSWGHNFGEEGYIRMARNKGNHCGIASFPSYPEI
Method in brief: as §1

SMILES	Sel cat. K: Ki(cathepsin K)/Ki(calpain) ratio (cathepsin K)	Sel cat. L: Ki(cathepsin L)/Ki(calpain) ratio (cathepsin L)	Sel cat. B: Ki(cathepsin B)/Ki(calpain) ratio (cathepsin B)	Sel cat. S: Ki(cathepsin S)/Ki(calpain) ratio (cathepsin S)
NC(=O)C(=O)C(Cc1ccccc1)NC(=O)c1cccnc1-n1ccc(-c2ccccc2C(F)(F)F)n1 (centres unmarked) [Example 72, N-(3-Amino-1-benzyl-2,3-dioxopropyl)-2-{3-[2-(trifluoromethyl)phenyl]-1H-pyrazol-1-yl}nicotinamide]	+ (+ means 10≦Ki(cathepsin K)/Ki(calpain)<30)	+ (+ means 30≦Ki(cathepsin L)/Ki(calpain)<50)	+ (+ means 10≦Ki(cathepsin B)/Ki(calpain)<30)	++ (++ means a Ki(cathepsin S)/Ki(calpain) ratio of ≧100)
COc1ccc(CC(NC(=O)c2cccnc2-n2ccc(-c3ccc(Cl)cc3Cl)n2)C(=O)C(N)=O)cc1 (centres unmarked) [Example 98, N-(3-Amino-1-{[4-(methyloxy)phenyl]methyl}-2,3-dioxopropyl)-2-[3-(2,4-dichlorophenyl)-1H-pyrazol-1-yl]pyridine-3-carboxamide]	++ (++ means a Ki(cathepsin K)/Ki(calpain) ratio of ≧30)	++ (++ means a Ki(cathepsin L)/Ki(calpain) ratio of ≧50)	++ (++ means a Ki(cathepsin B)/Ki(calpain) ratio of ≧30)	++ (++ means a Ki(cathepsin S)/Ki(calpain) ratio of ≧100)
NC(=O)C(=O)C(Cc1ccc(OC(F)(F)F)cc1)NC(=O)c1cccnc1-n1ccc(-c2cccc(C(F)(F)F)c2)n1 (centres unmarked) [Example 134, N-[3-Amino-2,3-dioxo-1-({4-[(trifluoromethyl)oxy]phenyl}methyl)propyl]-2-{3-[3-(trifluoromethyl)phenyl]-1H-pyrazol-1-yl}pyridine-3-carboxamide]	++ (++ means a Ki(cathepsin K)/Ki(calpain) ratio of ≧30)	+ (+ means 30≦Ki(cathepsin L)/Ki(calpain)<50)	++ (++ means a Ki(cathepsin B)/Ki(calpain) ratio of ≧30)	+ (+ means 50≦Ki(cathepsin S)/Ki(calpain)<100)
NC(=O)C(=O)C(Cc1ccccc1)NC(=O)c1cccnc1-n1cc2c(n1)-c1ccccc1S(=O)(=O)C2 (centres unmarked) [Example 174, N-[3-Amino-2,3-dioxo-1-(phenylmethyl)propyl]-2-(5,5-dioxidothiochromeno[4,3-c]pyrazol-2(4H)-yl)pyridine-3-carboxamide]	+ (+ means 10≦Ki(cathepsin K)/Ki(calpain)<30)	++ (++ means a Ki(cathepsin L)/Ki(calpain) ratio of ≧50)	+ (+ means 10≦Ki(cathepsin B)/Ki(calpain)<30)	++ (++ means a Ki(cathepsin S)/Ki(calpain) ratio of ≧100)
NC(=O)C(=O)C(Cc1ccccc1)NC(=O)c1cccnc1-n1ccc(-c2ccc(Cl)s2)n1 (centres unmarked) [Example 103, N-[3-Amino-2,3-dioxo-1-(phenylmethyl)propyl]-2-[3-(5-chloro-2-thienyl)-1H-pyrazol-1-yl]pyridine-3-carboxamide]	+ (+ means 10≦Ki(cathepsin K)/Ki(calpain)<30)	++ (++ means a Ki(cathepsin L)/Ki(calpain) ratio of ≧50)	+ (+ means 10≦Ki(cathepsin B)/Ki(calpain)<30)	++ (++ means a Ki(cathepsin S)/Ki(calpain) ratio of ≧100)
NC(=O)C(=O)C(Cc1ccccc1)NC(=O)c1cccnc1-n1ccc(-c2ccc(N3CCCC3)cc2)n1 (centres unmarked) [Example 69, N-(3-Amino-1-benzyl-2,3-dioxopropyl)-2-[3-(4-pyrrolidin-1-ylphenyl)-1H-pyrazol-1-yl]nicotinamide]	+ (+ means 10≦Ki(cathepsin K)/Ki(calpain)<30)	++ (++ means a Ki(cathepsin L)/Ki(calpain) ratio of ≧50)	+ (+ means 10≦Ki(cathepsin B)/Ki(calpain)<30)	++ (++ means a Ki(cathepsin S)/Ki(calpain) ratio of ≧100)
COc1ccc(CC(NC(=O)c2cccnc2-n2ccc(-c3cccc(F)c3Cl)n2)C(=O)C(N)=O)cc1 (centres unmarked) [Example 157, N-(3-Amino-1-{[4-(methyloxy)phenyl]methyl}-2,3-dioxopropyl)-2-[3-(2-chloro-3-fluorophenyl)-1H-pyrazol-1-yl]pyridine-3-carboxamide]	++ (++ means a Ki(cathepsin K)/Ki(calpain) ratio of ≧30)	++ (++ means a Ki(cathepsin L)/Ki(calpain) ratio of ≧50)	++ (++ means a Ki(cathepsin B)/Ki(calpain) ratio of ≧30)	++ (++ means a Ki(cathepsin S)/Ki(calpain) ratio of ≧100)
COc1ccc2c(c1)OCc1cn(-c3ncccc3C(=O)NC(Cc3ccccc3)C(=O)C(N)=O)nc1-2 (centres unmarked) [Example 142, N-[3-Amino-2,3-dioxo-1-(phenylmethyl)propyl]-2-[7-(methyloxy)chromeno[4,3-c]pyrazol-2(4H)-yl]pyridine-3-carboxamide]	+ (+ means 10≦Ki(cathepsin K)/Ki(calpain)<30)	++ (++ means a Ki(cathepsin L)/Ki(calpain) ratio of ≧50)	+ (+ means 10≦Ki(cathepsin B)/Ki(calpain)<30)	++ (++ means a Ki(cathepsin S)/Ki(calpain) ratio of ≧100)
CS(=O)(=O)Nc1cnc(-n2ccc(-c3ccccc3)n2)c(C(=O)NC(Cc2ccccc2)C(=O)C(N)=O)c1 (centres unmarked) [Example 158, N-[3-Amino-2,3-dioxo-1-(phenylmethyl)propyl]-5-[(methylsulfonyl)amino]-2-(3-phenyl-1H-pyrazol-1-yl)pyridine-3-carboxamide]	++ (++ means a Ki(cathepsin K)/Ki(calpain) ratio of ≧30)	++ (++ means a Ki(cathepsin L)/Ki(calpain) ratio of ≧50)	++ (++ means a Ki(cathepsin B)/Ki(calpain) ratio of ≧30)	++ (++ means a Ki(cathepsin S)/Ki(calpain) ratio of ≧100)
NC(=O)C(=O)C(Cc1ccccc1)NC(=O)c1cccnc1-n1ccc(-c2cccc3ccccc23)n1 (centres unmarked) [Example 110, N-[3-Amino-2,3-dioxo-1-(phenylmethyl)propyl]-2-(3-naphthalen-1-yl-1H-pyrazol-1-yl)pyridine-3-carboxamide]	++ (++ means a Ki(cathepsin K)/Ki(calpain) ratio of ≧30)	++ (++ means a Ki(cathepsin L)/Ki(calpain) ratio of ≧50)	++ (++ means a Ki(cathepsin B)/Ki(calpain) ratio of ≧30)	++ (++ means a Ki(cathepsin S)/Ki(calpain) ratio of ≧100)
NC(=O)C(=O)C(Cc1ccc(F)cc1)NC(=O)c1cccnc1-n1ccc(-c2ccccc2OC(F)(F)F)n1 (centres unmarked) [Example 152, N-{3-Amino-1-[(4-fluorophenyl)methyl]-2,3-dioxopropyl}-2-(3-{2-[(trifluoromethyl)oxy]phenyl}-1H-pyrazol-1-yl)pyridine-3-carboxamide]	++ (++ means a Ki(cathepsin K)/Ki(calpain) ratio of ≧30)	++ (++ means a Ki(cathepsin L)/Ki(calpain) ratio of ≧50)	++ (++ means a Ki(cathepsin B)/Ki(calpain) ratio of ≧30)	++ (++ means a Ki(cathepsin S)/Ki(calpain) ratio of ≧100)
NC(=O)C(=O)C(Cc1ccccc1)NC(=O)c1cccnc1-n1ccc(-c2cccc(Cl)c2Cl)n1 (centres unmarked) [Example 115, N-[3-Amino-2,3-dioxo-1-(phenylmethyl)propyl]-2-[3-(2,3-dichlorophenyl)-1H-pyrazol-1-yl]pyridine-3-carboxamide]	++ (++ means a Ki(cathepsin K)/Ki(calpain) ratio of ≧30)	++ (++ means a Ki(cathepsin L)/Ki(calpain) ratio of ≧50)	++ (++ means a Ki(cathepsin B)/Ki(calpain) ratio of ≧30)	++ (++ means a Ki(cathepsin S)/Ki(calpain) ratio of ≧100)
NC(=O)C(=O)C(Cc1cccc(F)c1)NC(=O)c1cccnc1-n1ccc(-c2ccccc2OC(F)(F)F)n1 (centres unmarked) [Example 162, N-{3-Amino-1-[(3-fluorophenyl)methyl]-2,3-dioxopropyl}-2-(3-{2-[(trifluoromethyl)oxy]phenyl}-1H-pyrazol-1-yl)pyridine-3-carboxamide]	++ (++ means a Ki(cathepsin K)/Ki(calpain) ratio of ≧30)	++ (++ means a Ki(cathepsin L)/Ki(calpain) ratio of ≧50)	++ (++ means a Ki(cathepsin B)/Ki(calpain) ratio of ≧30)	++ (++ means a Ki(cathepsin S)/Ki(calpain) ratio of ≧100)
NC(=O)C(=O)C(Cc1ccccc1)NC(=O)c1cccnc1-n1ccc(-c2cccc(C(F)(F)F)c2)n1 (centres unmarked) [Example 83, N-(3-Amino-1-benzyl-2,3-dioxopropyl)-2-{3-[3-(trifluoromethyl)phenyl]-1H-pyrazol-1-yl}nicotinamide]	++ (++ means a Ki(cathepsin K)/Ki(calpain) ratio of ≧30)	++ (++ means a Ki(cathepsin L)/Ki(calpain) ratio of ≧50)	+ (+ means 10≦Ki(cathepsin B)/Ki(calpain)<30)	++ (++ means a Ki(cathepsin S)/Ki(calpain) ratio of ≧100)
